We go through twelve compounds from PMC11661291, “Unique structural features in a deep-sea CYP51 relate to high pressure adaptation” (Research Square, 2024).

The target of series [1] is T1, C. armatus CYP51 (Coryphaenoides armatus, UniProt Z9AQN8BZD8). Nature of the series: Spectral titrations with sterol substrates (type I spectral response). As to conditions: for Low-to-high spin state transition in the heme iron / Change in absorbance, ΔAmax per μM P450: sterol 0.25–3 μM; for Low-to-high spin state transition in the heme iron: 22 °C; for Change in absorbance, ΔAmax per μM P450: optical pathlength 1 cm.
Protocol: Equal amounts of the HPCD solution were added to the reference cuvette to correct for the solvent-induced spectral perturbations, and the difference spectra were taken in the wavelength range of 350–500 nm. The apparent spectral dissociation constants of the enzyme-substrate complex (Kd) were calculated in GraphPad Prism software by fitting the data for the substrate-induced absorbance changes Δ(A390-A423) versus substrate concentration to a one site-total binding equation (binding-saturation).

The target of series [2] is T1, C. armatus CYP51. Nature of the series: Reconstituted catalytic activity, steady-state kinetic analysis of sterol 14α-demethylation. As to conditions: 0.25 μM P450, 1 μM CPR, 1 min reaction, 37 °C.
Protocol: (§1) The samples were preincubated for 3 min at 37 °C in a shaking water bath, the reaction was initiated by the addition of 100 μM NADPH and stopped by the extraction of sterols with ethyl acetate. The extracted sterols were dried, dissolved in 100 μL of methanol, and the products were analyzed by reversed-phase HPLC equipped with a β-RAM detector (INUS Systems) using a Nova-Pak 3.9 mm × 150 mm (4 μm) octadecylsilane (C18) HPLC column. The products were separated with an isocratic mobile phase composed of acetonitrile and methanol (4:1 (v/v)) at a flow rate of 0.75 mL/min[9]. Michaelis-Menten parameters were calculated using GraphPad Prism. The kcat and Km values for each reaction were determined by fitting the data to a Michaelis–Menten hyperbola, with the reaction rates (nmol product formed/nmol P450/min) being plotted versus total substrate concentration.
The target of series [3] is T1, C. armatus CYP51. Nature of the series: Inhibition of reconstituted enzymatic activity (decrease in substrate conversion in 1 h reaction). As to conditions: enzyme/inhibitor/substrate 1:50:50, 60 min, 0.5 μM P450.
Protocol: as §1
For series [4], the target named is human CYP51. The arrangement: method as in PMID 27313059. As to conditions: azole ligand; read-out: apparent dissociation constant (Kd); cited from earlier work.
Series [5] concerns the target T1, C. armatus CYP51. Nature of the series: Spectral titrations with azole-based ligands.
Protocol: Titrations with azole-based compounds were carried out at 0.5 μM P450 concentration in 5-cm optical path length cuvettes. Aliquots of 0.1 mM compounds dissolved in dimethyl sulfoxide (DMSO) were added to the sample cuvette, with each titration step being 0.1 μM. At each step, the corresponding volume of DMSO was added to the reference cuvette. The apparent spectral dissociation constants (Kd) were calculated in GraphPad Prism software as described for human CYP51[21].
Series [6] has as its target T1, C. armatus CYP51. Nature of the series: Stabilizing effect of TMAO registered by CO-binding spectra. As to the method:
Absorption spectra (270–700 nm) were recorded at 22 °C using a dual-beam Shimadzu UV-2600i spectrophotometer and software UVProbe2.71. The P450 concentration was determined from the Soret band absorbance in the absolute spectrum, the extinction coefficient 117 mM^−1 cm^−1 for the low-spin ferric form or 91 mM^−1 cm^−1 for the reduced (ferrous) carbon monoxide (CO) complex in the difference spectra[51].The spin state of the P450 samples was estimated from the absolute spectra using the ratio (ΔA393–470/ΔA417–470), with values of 0.35 and 2.0 corresponding to 100% low- and 100% high-spin iron, respectively.
After data collection the crystals were dissolved in phosphate buffered saline (PBS, Gibco). UV-visible absolute absorption spectra (270–700 nm) were recorded at room temperature using a single beam spectrophotometer NanoVue,4282 (CE Healthcare) (Figure S4A). CO-binding difference absorption spectra (400–500 nm) were recorded using a dual-beam Shimadzu UV-2600i spectrophotometer as follows. The CO gas was bubbled through the protein solution, which was then divided into two cuvettes serving as a blank and standard, respectively. The baseline was taken, and a few crystals of sodium dithionate were added to the sample cuvette (Figure S4B). The corresponding spectra of the original protein sample that was used for crystallization were taken for comparison.

Series [7] has as its system human CYP51. Also on record: method as in PMID 27313059. As to conditions: 50-fold molar excess of inhibitor over enzyme, 1-hour reaction; cited from earlier work.
For series [8], the system named is CC(C)=CCC[C@@H](C)[C@H]1CC[C@@]2(C)C3=C(CC[C@]12C)[C@@]1(C)CC[C@H](O)C(C)(C)[C@@H]1CC3. Nature of the series: purified protein, by the assay type. As to conditions: other: 0.25 μM P450, 1 μM CPR, 1 min reaction, 37 °C.
Protocol: as §1
The test system of series [9] is C=C(CC[C@@H](C)[C@H]1CC[C@@]2(C)C3=C(CC[C@]12C)[C@@]1(C)CC[C@H](O)[C@@H](C)[C@@H]1CC3)C(C)C. The series can be described thus: purified protein, by the assay type. Particulars: other: 0.25 μM P450, 1 μM CPR, 1 min reaction, 37 °C.
Protocol: as §1
Series [10] deals with C=C(CC[C@@H](C)C1CC[C@@]2(C)C3=C(CC[C@]12C)[C@@]1(C)CC[C@H](O)C(C)(C)C1CC3)C(C)C. Nature of the series: purified protein, by the assay type. Particulars: other: 0.25 μM P450, 1 μM CPR, 1 min reaction, 37 °C.
Protocol: as §1

T1 sequence (Z9AQN8BZD8 6-449 limits assumed): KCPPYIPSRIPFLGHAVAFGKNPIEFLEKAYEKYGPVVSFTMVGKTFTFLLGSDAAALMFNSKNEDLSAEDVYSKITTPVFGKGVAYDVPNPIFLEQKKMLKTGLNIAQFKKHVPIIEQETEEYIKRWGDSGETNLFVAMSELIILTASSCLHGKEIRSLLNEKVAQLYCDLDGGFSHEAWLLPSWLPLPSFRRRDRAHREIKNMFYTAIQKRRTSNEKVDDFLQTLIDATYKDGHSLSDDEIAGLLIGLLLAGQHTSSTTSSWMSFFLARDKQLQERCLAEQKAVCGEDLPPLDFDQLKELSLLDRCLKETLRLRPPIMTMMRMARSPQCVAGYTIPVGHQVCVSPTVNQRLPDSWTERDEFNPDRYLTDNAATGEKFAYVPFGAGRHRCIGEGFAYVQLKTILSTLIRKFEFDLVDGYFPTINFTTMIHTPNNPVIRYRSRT

For `C=C(CC[C@@H](C)[C@H]1CC[C@@]2(C)C3=C(CC[C@]12C)[C@@]1(C)CC[C@H](O)[C@@H](C)[C@@H]1CC3)C(C)C` [Obtusifoliol], the Kd on C. armatus CYP51 [1] turned out to be 0.56 µM. Further, on C. armatus CYP51 [1] (P450 2 μM), the “Low-to-high spin state transition in the heme iron” value (“Low-to-high spin state transition” for short) is 13% and the “Change in absorbance, ΔAmax per μM P450” value was 14. For the same compound, at C. armatus CYP51 [2], the kcat amounted to 0.865 s⁻¹.

As for `CC[C@@H]([C@H](C)O)n1ncn(-c2ccc(N3CCN(c4ccc(OC[C@@H]5CO[C@@](Cn6cncn6)(c6ccc(F)cc6F)C5)cc4)CC3)cc2)c1=O` [posaconazole], the “inhibition of C. armatus CYP51 activity” value against C. armatus CYP51 [3] is “did not have any inhibitory effect”.

At C. armatus CYP51 [1], `CC(C)=CCC[C@@H](C)[C@H]1CC[C@@]2(C)C3=C(CC[C@]12C)[C@@]1(C)CC[C@H](O)C(C)(C)[C@@H]1CC3` [Lanosterol] showed a Kd of 0.77 µM. On C. armatus CYP51 [1] (P450 2 μM), the “Low-to-high spin state transition” value came to 22% and the “Change in absorbance, ΔAmax per μM P450” value was 24. Moreover, the kcat on C. armatus CYP51 [2] came out at 0.797 s⁻¹.

For `C=C(CC[C@@H](C)C1CC[C@@]2(C)C3=C(CC[C@]12C)[C@@]1(C)CC[C@H](O)C(C)(C)C1CC3)C(C)C` (stereo partly drawn), on C. armatus CYP51 [1] (read-out: Kd (apparent spectral dissociation constant), sterol substrate, P450 2 μM), the Kd amounted to 1.02 µM. Also, at C. armatus CYP51 [1] (P450 2 μM), the “Low-to-high spin state transition” value amounted to 27% and the “Change in absorbance, ΔAmax per μM P450” value is on record as 30. Moreover, on C. armatus CYP51 [2], the kcat was determined as 1.03 s⁻¹.

Consider `CCC(C)n1ncn(-c2ccc(N3CCN(c4ccc(OCC5COC(Cn6cncn6)(c6ccc(Cl)cc6Cl)O5)cc4)CC3)cc2)c1=O` (stereo not drawn) [itraconazole], for which the values for the Kd at human CYP51 [4] and at C. armatus CYP51 [5] were 1.29 µM and 0.62 µM, respectively. The “inhibition of C. armatus CYP51 activity” value against C. armatus CYP51 [3] is on record as “did not have any inhibitory effect”.

On to `N#Cc1ccc(COc2ccc(C#Cc3ccc(C(F)(F)[C@](O)(Cn4cnnn4)c4ccc(F)cc4F)nc3)cc2)cc1` [VT-1598], for which the “inhibition of C. armatus CYP51 activity” value against C. armatus CYP51 [3] is listed as “did not have any inhibitory effect”.

As for `C[C@@H](c1ncncc1F)[C@](O)(Cn1cncn1)c1ccc(F)cc1F` [voriconazole], the Kd was 2.53 µM on human CYP51 [4] and 0.61 µM on C. armatus CYP51 [5]. In addition, the “inhibition of C. armatus CYP51 activity” value on C. armatus CYP51 [3] is recorded as “did not have any inhibitory effect”.

With `O[C@@](Cn1cnnn1)(c1ccc(F)cc1F)C(F)(F)c1ccc(-c2ccc(OCC(F)(F)F)cc2)cn1` [oteseconazole], on C. armatus CYP51 [3], the “inhibition of C. armatus CYP51 activity” value was “did not have any inhibitory effect”.

On to `C[N+](C)(C)[O-]` [TMAO, trimethylamine oxide], for which, on C. armatus CYP51 [6], the “spectral response in the heme iron” value is “does not cause any spectral response”. Moreover, the “P450 recovery after overnight incubation (CO-binding spectra)” value on C. armatus CYP51 [6] (10 μM TMAO, overnight storage at 4 °C in PBS) stood at 90%.

On to `CC(=O)N1CCN(c2ccc(OCC3COC(Cn4ccnc4)(c4ccc(Cl)cc4Cl)O3)cc2)CC1` (stereo not drawn) [ketoconazole], for which the “lanosterol converted in presence of inhibitor” value with human CYP51 [7] is reported as 100%. In addition, the Kd is 0.07 µM at human CYP51 [4] and 0.01 µM at C. armatus CYP51 [5].

Consider “C. armatus CYP51 (Coryphaenoides armatus)”, for which, in [8], the Km worked out at 8.1 µM, the kcat was found to be 0.797 s⁻¹ and the specificity constant (kcat/Km) came out at 98300 M⁻¹ s⁻¹. Moreover, in series [9], the Michaelis-Menten constant (Km) was 7.9 µM, the kcat was 0.865 s⁻¹ and the kcat/Km amounted to 110000 M⁻¹ s⁻¹. In series [10], the Michaelis-Menten constant (Km) is 13.0 µM, the kcat was 1.03 s⁻¹ and the kcat/Km came out at 80000 M⁻¹ s⁻¹.

For `C[C@@H](c1nc(-c2ccc(C#N)cc2)cs1)[C@](O)(Cn1cncn1)c1cc(F)ccc1F` [isavuconazole], the “inhibition of C. armatus CYP51 activity” value at C. armatus CYP51 [3] is reported as “did not have any inhibitory effect”.
